# Entries after “also recorded” stand apart in the source; their conditions may differ.
# Assays:
# [1] = system: gastric cancers; assay: K-M Plotter meta-analysis on chemo-sensitivity, gastric cancer; type: in vivo, human; conditions: gastric cancer patients
# From the text: (§1) To address small sample sizes in individual datasets when predicting drug sensitivity, we performed meta-analysis on chemo-sensitivity for several cancer types using K-M Plotter.
# (§2) For meta-analysis using K-M Plotter for prognosis, we chose to use the top CES terile as high CES group, and the rest as low CES group. For meta-analysis on sensitivity to adjuvant therapies using K-M Plotter, we chose to use automatically computed best performing CES threshold for patient stratification in all dataset to increase detection sensitivity, even though tertile or median method gave similar results with statistical significance for many datasets. The K-M Plotter software only incorporates genes with probes present on both U133A+B to ensure comparability between datasets for meta-analysis, thus it excluded 7 CEN/KT genes including CENP-H, -W, -L, -K, -P, SPC24 and NUF2, of which 5 are also CES genes. Therefore, we used the 9 remaining CES genes, e.g., CENP-A, HJURP, MIS18B, CENP-N, CENP-M, CENP-U, ZWINT, NDC80, and SPC25, as a simplified version of the CES when using K-M Plotter.
# [2] = system: CCLE (Cancer Cell Line Encyclopedia) cell lines; assay: CCLE cell lines: IC50 of Topo I inhibitors versus CES value; type: cell-based; conditions: CCLE cell lines binned into CES quartiles
# From the text: We mined the Cancer Cell Line Encyclopedia (CCLE) data, which contains information on both drug treatment and gene expression (Barretina et al., 2012). CCLE cell lines were binned into quartiles according to their CES values, we compared the top and bottom CES quartiles for the IC50 of the Topo I inhibitors and DNA damaging agents irinotecan and topotecan.
# The Statistical Analysis of Microarrays (SAM) Excel add-on package (the website at www-stat.stanford.edu/˜tibs/SAM/) was used to identify differences between normal and tumor tissues in expression levels of CEN/KT genes (FDR≤0.05 and fold changes ≥2). Sample clustering was performed on the CEN/KT gene expression profiles using hierarchical clustering in Cluster 3.0 and Java Treeview 1.1.6r4 to group samples by centroid. For CCLE drug sensitivity, analysis was performed in Excel (Microsoft) and GraphPad. Kaplan-Meier survival curves for the CES system were generated for patients to evaluate differences in disease-free survival (DFS), stratified into groups of high (upper tertile), intermediate (middle tertile) and low (lower tertile) CES to evaluate differences in disease-free survival (DFS). […] Five-year survival was analyzed by chi-square test for significance.
# [3] = system: ER+ breast cancer; assay: K-M Plotter meta-analysis on chemo-sensitivity, ER+ breast cancer relapse-free survival; conditions: ER+ breast cancer patients under the named therapy
# From the text: as §1, §2
# [4] = system: late stage ovarian cancers; assay: K-M Plotter meta-analysis on chemo-sensitivity, ovarian cancer overall survival; type: in vivo, human; conditions: ovarian cancer patients, mostly late stage, under the named adjuvant therapy
# From the text: as §1, §2
smiles,measurement,setting,value
"O=c1[nH]cc(F)c(=O)[nH]1 [5-FU, 5-fluorouracil]",prediction power of CES for sensitivity,[1],no significant prediction power
CCc1c2c(nc3ccc(OC(=O)N4CCC(N5CCCCC5)CC4)cc13)-c1cc3c(c(=O)n1C2)COC(=O)[C@]3(O)CC [irinotecan],"average IC50, top CES quartile compared to bottom CES quartile",[2],significantly lower IC50s; also recorded: significantly more sensitive
CC/C(=C(\c1ccccc1)c1ccc(OCCN(C)C)cc1)c1ccccc1 [tamoxifen],"HR associated with high CES, relapse-free survival (RFS)",[3],1.80
CC[C@@]1(O)C(=O)OCc2c1cc1n(c2=O)Cc2cc3c(CN(C)C)c(O)ccc3nc2-1 [topotecan],"average IC50, top CES quartile compared to bottom CES quartile",[2],significantly lower IC50s; also recorded: significantly more sensitive
same,"HR associated with high CES, overall survival",[4],.63

# Source: patent US11434535B2, “Centromere/kinetochore protein genes for cancer diagnosis, prognosis and treatment selection” (The Regents of the University of California, priority 2014, dated 2022)
